Results published in patent publication US20160122342A1, “ENHANCER OF ZESTE HOMOLOG 2 INHIBITORS” (GLAXOSMITHKLINE INTELLECTUAL PROPERTY (NO.2) LIMITED, priority 2013, published 2016).
pIC50: −log10 of the molar value. Structures can show the parent of a compound that is named as a salt. Where two headings read alike, the source gives them in different places.

Key:
[1] = rcm bond
[2] = rcm bond, 12-membered ring, DCM
[3] = target: T1, EZH2 within the PRC2 complex (Homo sapiens, UniProt Q15910); experiment: Assay Protocol 2: EZH2 methyltransferase scintillation proximity assay, biotinylated histone H3 peptide substrate; assay type: biochemical; details: SPA, 3H-SAM, biotinylated unmethylated histone H3K27 peptide substrate, 5-member PRC2 complex
T1 construct: FLAG; made in house; host or cells: Sf9 cells
T1 sequence (Q15910 whole entry): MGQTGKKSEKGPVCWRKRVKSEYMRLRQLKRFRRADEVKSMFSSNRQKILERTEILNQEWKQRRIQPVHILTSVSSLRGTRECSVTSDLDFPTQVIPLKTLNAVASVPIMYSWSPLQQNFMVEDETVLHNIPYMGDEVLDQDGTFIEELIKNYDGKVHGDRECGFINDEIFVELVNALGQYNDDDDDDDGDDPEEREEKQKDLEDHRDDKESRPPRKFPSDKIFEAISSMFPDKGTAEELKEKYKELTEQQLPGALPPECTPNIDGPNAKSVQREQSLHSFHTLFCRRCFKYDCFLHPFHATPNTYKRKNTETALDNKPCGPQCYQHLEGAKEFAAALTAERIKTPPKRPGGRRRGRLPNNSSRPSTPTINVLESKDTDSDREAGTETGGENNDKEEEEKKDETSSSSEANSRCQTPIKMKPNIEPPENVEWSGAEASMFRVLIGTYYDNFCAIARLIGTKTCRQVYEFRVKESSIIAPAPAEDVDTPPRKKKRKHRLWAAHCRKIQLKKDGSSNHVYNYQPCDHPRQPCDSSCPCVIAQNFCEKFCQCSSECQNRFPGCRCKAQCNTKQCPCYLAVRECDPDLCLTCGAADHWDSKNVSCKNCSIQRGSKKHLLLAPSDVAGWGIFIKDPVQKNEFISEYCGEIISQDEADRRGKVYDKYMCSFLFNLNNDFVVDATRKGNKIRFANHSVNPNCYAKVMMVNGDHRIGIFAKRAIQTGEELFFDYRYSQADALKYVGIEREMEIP
T1 sequence (O75530 whole entry partner): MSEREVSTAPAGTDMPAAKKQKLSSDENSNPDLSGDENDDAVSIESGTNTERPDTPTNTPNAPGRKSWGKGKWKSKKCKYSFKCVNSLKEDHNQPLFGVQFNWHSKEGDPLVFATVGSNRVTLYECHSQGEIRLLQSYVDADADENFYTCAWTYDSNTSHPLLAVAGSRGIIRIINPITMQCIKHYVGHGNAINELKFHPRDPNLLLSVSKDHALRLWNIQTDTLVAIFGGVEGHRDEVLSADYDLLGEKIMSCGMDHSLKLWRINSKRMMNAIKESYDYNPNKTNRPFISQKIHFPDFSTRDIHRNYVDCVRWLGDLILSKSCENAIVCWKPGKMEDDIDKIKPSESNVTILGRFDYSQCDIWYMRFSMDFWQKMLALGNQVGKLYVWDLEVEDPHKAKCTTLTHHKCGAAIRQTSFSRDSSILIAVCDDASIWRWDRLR
T1 sequence (Q15022 whole entry partner): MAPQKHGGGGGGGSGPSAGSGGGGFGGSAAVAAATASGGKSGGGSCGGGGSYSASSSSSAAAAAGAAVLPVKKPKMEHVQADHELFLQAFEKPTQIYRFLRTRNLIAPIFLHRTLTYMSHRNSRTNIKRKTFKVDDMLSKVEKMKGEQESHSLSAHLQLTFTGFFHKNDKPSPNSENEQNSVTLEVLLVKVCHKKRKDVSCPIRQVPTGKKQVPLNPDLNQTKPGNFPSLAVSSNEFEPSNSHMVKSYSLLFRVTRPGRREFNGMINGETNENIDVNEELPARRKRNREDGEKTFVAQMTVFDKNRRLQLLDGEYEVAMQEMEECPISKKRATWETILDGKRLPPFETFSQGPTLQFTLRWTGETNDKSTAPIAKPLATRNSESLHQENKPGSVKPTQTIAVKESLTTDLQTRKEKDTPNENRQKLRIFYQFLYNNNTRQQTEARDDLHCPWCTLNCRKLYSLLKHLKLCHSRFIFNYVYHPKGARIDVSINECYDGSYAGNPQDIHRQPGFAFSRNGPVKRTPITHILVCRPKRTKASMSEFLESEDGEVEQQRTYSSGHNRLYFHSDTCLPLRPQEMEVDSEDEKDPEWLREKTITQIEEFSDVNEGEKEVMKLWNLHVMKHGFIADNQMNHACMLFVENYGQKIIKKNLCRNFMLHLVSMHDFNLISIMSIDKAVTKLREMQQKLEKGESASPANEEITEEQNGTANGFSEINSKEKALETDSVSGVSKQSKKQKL
T1 sequence (Q09028 whole entry partner): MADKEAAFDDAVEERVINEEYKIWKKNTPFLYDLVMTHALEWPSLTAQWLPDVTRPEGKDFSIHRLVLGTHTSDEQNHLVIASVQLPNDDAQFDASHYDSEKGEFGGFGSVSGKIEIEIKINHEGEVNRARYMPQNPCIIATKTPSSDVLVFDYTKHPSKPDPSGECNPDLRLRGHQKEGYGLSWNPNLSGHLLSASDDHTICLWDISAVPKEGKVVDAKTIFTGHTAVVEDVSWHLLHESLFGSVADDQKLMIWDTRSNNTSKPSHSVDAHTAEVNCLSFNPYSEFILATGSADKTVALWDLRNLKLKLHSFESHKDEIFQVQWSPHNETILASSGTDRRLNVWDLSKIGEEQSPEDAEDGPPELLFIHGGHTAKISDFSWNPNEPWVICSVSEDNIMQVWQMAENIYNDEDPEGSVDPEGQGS
T1 sequence (Q6ZN18 whole entry partner): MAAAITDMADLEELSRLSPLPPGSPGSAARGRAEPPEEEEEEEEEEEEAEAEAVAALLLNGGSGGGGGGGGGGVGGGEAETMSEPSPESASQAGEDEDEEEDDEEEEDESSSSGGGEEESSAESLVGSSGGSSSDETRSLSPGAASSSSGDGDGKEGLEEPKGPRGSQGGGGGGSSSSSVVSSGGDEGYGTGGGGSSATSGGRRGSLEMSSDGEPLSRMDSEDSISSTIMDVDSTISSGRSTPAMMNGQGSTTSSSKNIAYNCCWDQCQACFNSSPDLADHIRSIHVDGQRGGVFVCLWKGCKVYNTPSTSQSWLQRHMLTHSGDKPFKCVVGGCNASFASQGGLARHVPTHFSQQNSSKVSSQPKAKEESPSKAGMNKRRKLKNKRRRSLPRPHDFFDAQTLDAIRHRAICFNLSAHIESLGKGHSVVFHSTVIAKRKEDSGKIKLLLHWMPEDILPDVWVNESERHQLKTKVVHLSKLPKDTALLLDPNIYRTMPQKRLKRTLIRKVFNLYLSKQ
In short: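 PRC2-complexed EZH2 was run in 50 mM Tris-HCl pH 8, 2 mM MgCl2, 4 mM DTT and 0.001% Tween-20. It was added to a 2× mix of 10 uM biotinylated H3K27 peptide, 0.15 uM 3H-SAM and 2.85 uM cold SAM with streptavidin SPA beads. After 60 min at room temperature and a cold-SAM quench, IC50 was fitted from percent inhibition versus DMSO.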

[4] = target: T1, EZH2 within the PRC2 complex; experiment: Assay Protocol 1: EZH2 methyltransferase scintillation proximity assay, mononucleosome substrate; assay type: biochemical; details: Assay Protocol 1; SPA, 3H-SAM, Histone H3 of mononucleosome purified from HeLa cells; 5-member PRC2 complex; read-out: EZH2 IC50
Protocol: Compounds contained herein were evaluated for their ability to inhibit the methyltransferase activity of EZH2 within the PRC2 complex. […] Mononucleosomes were captured on SPA beads and the resulting signal is read on a ViewLux plate reader. • 1. Prepare 10 mM stock of compounds from solid in 100% DMSO. • 2. […] Dispense 100 nL of compound from the dilution plate into reaction plates (Grenier Bio-One, 384-well, Cat#784075). Prepare the following solutions: • 1. 50 mM Tris-HCl, pH 8: Per 1 L of base buffer, combine 1 M Tris-HCl, pH 8 (50 mL) and distilled water (950 mL). • 2. 1× Assay Buffer: […] SPA Bead Suspension: […] Per 10 mL of 2× Substrate Solution, combine 1× Assay Buffer (9728.55 uL), 800 ug/mL mononucleosomes (125 uL), 1 mM cold SAM (4 uL), and 7.02 uM 3H-SAM (142.45 uL; 0.55 mCi/mL) to provide a final concentration of 5 ug/mL nucleosomes, 0.2 uM cold SAM, and 0.05 uM 3H-SAM. • 6. 2.67× Quench/Bead Mixture: Per 10 mL of 2.67× Quench/Bead Mixture, combine ddH2O (9358 uL), 10 mM cold SAM (267 uL), 40 mg/mL Bead Suspension (375 uL) to provide a final concentration of 100 uM cold SAM and 0.5 mg/mL SPA beads. • 1. Dispense 100 nL/well of 100× Compound to test wells (as noted above). • 2. […] • 1. Dispense 5 uL/well of 1× Assay Buffer to column 18 (low control reactions). • 2. Dispense 5 uL/well of 2× Enzyme Solution to columns 1-17, 19-24. • 3. Spin assay plates for ˜1 minute at 500 rpm. • 4. Stack the assay plates, covering the top plate. • 5. Incubate the compound/DMSO with the enzyme for 30 minutes at room temperature. • 6. Dispense 5 uL/well of 2× Substrate Solution to columns 1-24. • 7. Spin assay plates for ˜1 minute at 500 rpm. • 8. Stack the assay plates, covering the top plate. • 9. Incubate the assay plates at room temperature for 1 hour. • 1. Dispense 5 uL/well of the 3× Quench/Bead Mixture to columns 1-24. • 2. Seal the top of each assay plate with adhesive TopSeal. • 3. Spin assay plates for ˜1 minute at 500 rpm. • 4. […] • 1. Read the assay plates on the Viewlux Plate Reader utilizing the 613 nm emission filter with a 300 s read time. Reagent addition can be done manually or with automated liquid handler. The final DMSO concentration in this assay is 1%. The positive control is in column 6; negative control is in column 18. Final starting concentration of compounds is 100 μM. Percent inhibition was calculated relative to the DMSO control for each compound concentration and the resulting values were fit using standard IC50 fitting parameters within the ABASE data fitting software package.

[5] = from C=CCCc1cc(C)nc(OC)c1CNC(=O)c1ccnc(Cl)c1CC=C, 12-membered ring, Grubbs II (10 mol%), DCM, 10.6 mM, 16.0 h
[6] = from C=CCCc1cc(C)nc(OC)c1CNC(=O)c1cccc(N(CC)C2CCOCC2)c1CC=C, 12-membered ring, Grubbs II (2 x 20 mol%), DCM, 25.3 mM, 25.0 °C, 36.0 h

pIC50 [3] | pIC50 [4] | Structure (SMILES) | other results
6.90 | 7.49 | CCN(c1cc(Cl)cc2c1C/C=C/CCc1cc(C)[nH]c(=O)c1CNC2=O)C1CCOCC1 [Example 17, (E)-12-chloro-10-(ethyl(tetrahydro-2H-pyran-4-yl)amino)-3-methyl-5,6,15,16-tetrahydrobenzo[c]pyrido[4,3-j][1]azacyclododecine-1,14(2H,9H)-dione] | –
6.90 | 7.10 | CCN(c1cccc2c1C/C=C/CCc1cc(C)[nH]c(=O)c1CN(C)C2=O)C1CCOCC1 [Example 9, (E)-10-(ethyl(tetrahydro-2H-pyran-4-yl)amino)-3,15-dimethyl-5,6,15,16-tetrahydrobenzo[c]pyrido[4,3-j][1]azacyclododecine-1,14(2H,9H)-dione] | –
6.90 | 7.80 | CCN(c1cccc2c1C/C=C/CCc1cc(C)[nH]c(=O)c1CNC2=O)[C@H]1CC[C@H](N)CC1 [Example 36, (E)-10-((trans-4-aminocyclohexyl)(ethyl)amino)-3-methyl-5,6,15,16-tetrahydrobenzo[c]pyrido[4,3-j][1]azacyclododecine-1,14(2H,9H)-dione] | –
6.70 | 7.40 | CCN(c1cccc2c1C/C=C/CCc1cc(C)[nH]c(=O)c1CNC2=O)C1CCN(CCO)CC1 [Example 35, (E)-10-(ethyl(1-(2-hydroxyethyl)piperidin-4-yl)amino)-3-methyl-5,6,15,16-tetrahydrobenzo[c]pyrido[4,3-j][1]azacyclododecine-1,14(2H,9H)-dione] | –
6.80 | 7.00 | CCN(c1cccc2c1C/C=C/CNCc1cc(C)[nH]c(=O)c1CNC2=O)C1CCOCC1 [Example 38, (E)-11-(ethyl(tetrahydro-2H-pyran-4-yl)amino)-3-methyl-5,6,7,10,16,17-hexahydro-1H-benzo[h]pyrido[4,3-c][1,6]diazacyclotridecine-1,15(2H)-dione] | –
5.00 | 5.40 | CCN(c1cccc2c1CC=CCc1cc(C)[nH]c(=O)c1CNC2=O)C1CCNCC1 [Example 54, 9-(ethyl(piperidin-4-yl)amino)-3-methyl-5,8,14,15-tetrahydro-1H-benzo[c]pyrido[4,3-i][1]azacycloundecine-1,13(2H)-dione] | –
6.90 | 7.30 | CCN(c1cccc2c1C/C=C/CCc1cc(C)[nH]c(=O)c1CNC2=O)[C@H]1CC[C@H](N(C)C)CC1 [Example 37, (E)-10-((trans-4-(dimethylamino)cyclohexyl)(ethyl)amino)-3-methyl-5,6,15,16-tetrahydrobenzo[c]pyrido[4,3-j][1]azacyclododecine-1,14(2H,9H)-dione] | –
6.90 | 7.60 | Cc1cc2c(c(=O)[nH]1)CNC(=O)c1cc(Cl)cc(O[C@H]3CC[C@H](N(C)C)CC3)c1C/C=C/CC2 [Example 2, (E)-12-chloro-10-((trans-4-(dimethylamino)cyclohexyl)oxy)-3-methyl-5,6,15,16-tetrahydrobenzo[c]pyrido[4,3-j][1]azacyclododecine-1,14(2H,9H)-dione] | –
6.00 | 7.60 | CCN(c1cccc2c1CCCCCCc1cc(C)[nH]c(=O)c1CNC2=O)C1CCOCC1 [Example 20, 11-(ethyl(tetrahydro-2H-pyran-4-yl)amino)-3-methyl-5,6,7,8,9,10,16,17-octahydro-1H-benzo[c]pyrido[4,3-k][1]azacyclotridecine-1,15(2H)-dione] | –
5.70 | 5.90 | CCN(c1cccc2c1C/C=C\CNCc1cc(C)[nH]c(=O)c1CNC2=O)C1CCOCC1 [Example 39, (Z)-11-(ethyl(tetrahydro-2H-pyran-4-yl)amino)-3-methyl-5,6,7,10,16,17-hexahydro-1H-benzo[h]pyrido[4,3-c][1,6]diazacyclotridecine-1,15(2H)-dione] | –
6.90 | 7.20 | CCN(c1cccc2c1C/C=C/CCc1cc(C)[nH]c(=O)c1CNC2=O)C1CCN(S(C)(=O)=O)CC1 [Example 34, (E)-10-(ethyl(1-(methylsulfonyl)piperidin-4-yl)amino)-3-methyl-5,6,15,16-tetrahydrobenzo[c]pyrido[4,3-j][1]azacyclododecine-1,14(2H,9H)-dione] | –
7.00 | 7.49 | CCN(c1cccc2c1C/C=C/CCCc1cc(C)[nH]c(=O)c1CNC2=O)C1CCNCC1 [Example 40, (E)-11-(ethyl(piperidin-4-yl)amino)-3-methyl-5,6,7,10,16,17-hexahydro-1H-benzo[c]pyrido[4,3-k][1]azacyclotridecine-1,15(2H)-dione] | –
6.80 | 7.30 | CCN(c1cccc2c1C/C=C/CCCCc1cc(C)[nH]c(=O)c1CNC2=O)C1CCOCC1 [Example 14, (E)-12-(ethyl(tetrahydro-2H-pyran-4-yl)amino)-3-methyl-5,6,7,8,17,18-hexahydrobenzo[c]pyrido[4,3-l][1]azacyclotetradecine-1,16(2H,11H)-dione hydrochloride] | –

More lines, now with the values behind:

Structure (SMILES) | pIC50 [3] | pIC50 [4] | other results
CCN(c1cccc2c1C/C=C\Cc1cc(C)nc(OC)c1CNC2=O)[C@H]1CC[C@H](NC(=O)OC(C)(C)C)CC1 | – | – | ring closure, yield after HPLC ([1]; from C=CCCc1cc(C)nc(OC)c1CNC(=O)c1cccc(N(CC)[C@H]2CC[C@H](NC(=O)OC(C)(C)C)CC2)c1CC=C, 11-membered ring, Hoveyda-Grubbs (17.5 mol%), DCE, 16.0 mM, 50.0 °C): 13.7%
COc1nc(C)cc2c1CNC(=O)c1ccnc(Cl)c1C/C=C\CC2 | – | – | ring closure, yield after HPLC [1, 5]: 18.3%
CCN(c1cccc2c1CC=CCCc1cc(C)nc(OC)c1CNC2=O)[C@H]1CC[C@@H](NC(=O)OC(C)(C)C)CC1 | – | – | ring closure, isolated yield ([2]; from C=CCCc1cc(C)nc(OC)c1CNC(=O)c1cccc(N(CC)[C@H]2CC[C@@H](NC(=O)OC(C)(C)C)CC2)c1CC=C, Hoveyda-Grubbs II (2 x 20 mol%), 39.8 mM, 55.0 °C, 72.0 h): 57.8%
COc1cc(Cl)cc2c1CC=CCCc1cc(C)nc(OC)c1CNC2=O | – | – | ring closure, isolated yield ([2]; from C=CCCc1cc(C)nc(OC)c1CNC(=O)c1cc(Cl)cc(OC)c1CC=C, Grubbs II (10 mol%), 19.4 mM, 25.0 °C, 16.0 h): 69%
CCN(c1cccc2c1C/C=C\CCc1cc(C)nc(OC)c1CNC2=O)C1CCOCC1 | – | – | ring closure, yield after HPLC [1, 6]: 23%
CCN(c1cccc2c1C/C=C/CCc1cc(C)nc(OC)c1CNC2=O)C1CCC(F)(F)CC1 | – | – | ring closure, yield after HPLC ([1]; from C=CCCc1cc(C)nc(OC)c1CNC(=O)c1cccc(N(CC)C2CCC(F)(F)CC2)c1CC=C, 12-membered ring, Grubbs II (15 mol%), DCM, 32.1 mM, 25.0 °C, 16.0 h): 62%
COc1nc(C)cc2c1CNC(=O)c1ccnc(Cl)c1C/C=C/CC2 | – | – | ring closure, yield after HPLC [1, 5]: 37.3%
Cc1cc2c(c(=O)[nH]1)CNC(=O)c1cc(Cl)cc(O[C@H]3CC[C@H](N)CC3)c1C/C=C/CC2 [Example 1, (E)-10-((trans-4-aminocyclohexyl)oxy)-12-chloro-3-methyl-5,6,15,16-tetrahydrobenzo[c]pyrido[4,3-j][1]azacyclododecine-1,14(2H,9H)-dione hydrochloride] | 7.00 | 7.49 | –
Cc1cc2c(c(=O)[nH]1)CNC(=O)c1cc(Cl)cc(O[C@H]3CC[C@H](N(C)C)CC3)c1C/C=C/CCC2 [Example 8, (E)-13-chloro-11-((trans-4-(dimethylamino)cyclohexyl)oxy)-3-methyl-5,6,7,10,16,17-hexahydro-1H-benzo[c]pyrido[4,3-k][1]azacyclotridecine-1,15(2H)-dione] | 6.60 | 7.20 | –
CCN(c1cccc2c1C/C=C/CCc1cc(C)nc(OC)c1CNC2=O)C1CCOCC1 | – | – | ring closure, yield after HPLC [1, 6]: 58%
